{"source": "patent US20240374546A1", "about": "“USES AND METHODS FOR PROMOTING INCREASED MITOCHONDRIAL MASS AND FUNCTION” (Brightseed, Inc., priority 2022, published 2024)", "key": {"cytochrome C": {"tested_on": "cytochrome C", "test": "Western blot, mouse liver, cytochrome C", "format": "in vivo", "conditions": "HFD+NCT vs HFD", "protocol": "(§1) Mouse liver extracts were prepared by incubation in RIPA buffer (Invitrogen) containing protease inhibitors (Calbiochem, San Diego, CA). Protein was quantified by BCA assay (Thermo Scientific). Protein ([…] for cytochrome C) was separated on 12% or 16% Tri-Glycine gels (Invitrogen) and transferred to Immobilon P membrane (0.2 μm pore size, Millipore). After 1 hour in phosphate-buffered saline-Tween (PBST) with 3% milk, membranes were incubated with antibodies to PPARGC1A(PGC1α) (Cat #NBP1-04676, Novus, 1:1000), SDHA XP (Cat #11998, Cell Signaling 1:1000), or Cytochrome C (Cat #4280, Cell Signaling 1:500), followed by secondary antibody conjugated to horseradish peroxidase (1:5000, Jackson Immune or Cell Signaling). […] After detection, membrane was incubated with Ponceau S solution (Sigma) for 1 hr for normalization to loaded protein."}, "[1]": {"tested_on": "succinate dehydrogenase (SDHA)", "test": "Western blot, mouse liver, SDHA", "format": "in vivo", "conditions": "HFD+NCT vs HFD", "protocol": "as §1"}, "Parp1 mRNA": {"tested_on": "Parp1 mRNA", "test": "qPCR mouse liver, Parp1 mRNA", "format": "in vivo", "conditions": "HFD+NCT vs HFD", "protocol": "(§2) Total RNA was isolated from liver tissues and primary human hepatocytes using Trizol (Invitrogen). cDNA was amplified using 3 μg of total RNA using qScript cDNA SuperMix (Quanta BioSciences, Beverly, MA, USA). Quantitative real time PCR (RT-PCR) analysis was performed using SYBR® Select Master Mix (Applied Biosystems) and an ABI 7900HT thermal cycler (Applied Biosystems, Thermo Fisher Scientific). Ct values were normalized to 18s rRNA and are expressed as fold change over samples from mice fed NC or cultured human hepatocytes without NCT."}, "IL-6 mRNA": {"tested_on": "IL-6 mRNA", "test": "qPCR mouse liver, IL-6 mRNA", "format": "in vivo", "conditions": "HFD+NCT vs HFD", "protocol": "as §2"}, "Sirtuin1 mRNA": {"tested_on": "Sirtuin1 mRNA", "test": "qPCR primary human hepatocytes, Sirtuin1 mRNA", "format": "cell-based", "conditions": "NCT 5, 15, 40 μM", "protocol": "Experiments with primary human hepatocytes were performed by CN-Bio (Cambridge, UK). Briefly, primary human hepatocytes (PHHs), human Kupffer cells (HKs) and human stellate cells (HSCs) were seeded onto CN-Bio's PhysioMimix LC12 MPS culture plates at 6×10^5 cells for PHHs and 6×10^4 cells for HKs and HSCs in 1.6 ml of CN-Bio's HEP-lean media with 5% FCS. Throughout the experiment the cells were maintained at a flow rate of 1 μl/s. After 24 hours (Day 1) of seeding, the media was changed to HEP-lean media and the cells were incubated until day 4 to allow the cells to form microtissues. At day 4 post seeding, media was changed to HEP-fat media and treated with DMSO or NCT (5, 15, 40 μM). Media was replaced on days 6 and 8. Cells were harvested on day 10 for RNA extraction and culture media was collected for ELISA analysis.\nas §2"}, "T6PNE cells": {"tested_on": "T6PNE cells", "test": "Nitric oxide assay, T6PNE cells treated with palmitate", "format": "cell-based", "conditions": "palmitate plus 15 μM NCT, 3 days, normalized to protein", "protocol": "T6PNE cells were maintained in RPMI (5.5 mM glucose, Corning) supplemented with 10% fetal bovine serum (FBS, Sigma-Aldrich) and 1% penicillin-streptomycin (pen-strep, Gibco) in 5% CO2 at 37° C. Cells were treated with […] palmitate plus 0 or 15 μM NCT for 3 days in 10 cm plates and harvested with 500 μl PBS. For tissue specimens, snap frozen mouse liver was weighed and homogenized with PBS. NO was measured with the QuantiChrom Nitric Oxide Assay kit (D2NO-100, BioAssay Systems). Homogenized samples (150 μl) were processed for deproteination with 8 μl ZnSO4 and 8 μl NaOH. For normalization, an aliquot of samples from T6PNE cells was taken for BCA assay before deproteination. Samples and standard from kit incubated with reagents for 20 min at 60° C. and measured OD 540 nm.\nPalmitate (150 mM) (Sigma-Aldrich) was prepared in 50% ethanol and precomplexed with 15% fatty acid-free BSA (Research Organics, Cleveland, OH, USA) in a 37° C. water shaker. […] precomplexed palmitate was used as a 12 mM stock solution for all assays with a final concentration of 0.12 mM palmitate in cell culture medium."}, "[2]": {"test": "Liver profile analysis of blood (VetScan)", "format": "in vivo, mouse", "protocol": "Mice were anesthetized and 100 μL of whole blood was collected via retro-orbital bleeding in lithium heparin blood collection tubes and transferred to single use VetScan mammalian liver profile reagent rotors. The levels of multiple analytes, including Alkaline Phosphatase (ALP), Alanine Aminotransferase (ALT), Gamma Glutamyl Transferase (GGT), Bile Acids (BA), TBIL (Total Bilirubin), Albumin (ALB), Blood Urea Nitrogen […] (BUN), Total Cholesterol (CHOL) were quantified using a VetScan VS2 Chemistry Analyzer (Abaxis North America, USA)."}, "[3]": {"test": "Blood count analysis (Hemavet)", "format": "in vivo, mouse", "conditions": "HFD versus HFD+NCT", "protocol": "Mice were anesthetized and 20 μL of whole blood was collected via retro-orbital bleeding in lithium heparin blood collection tubes and 20 different hematologic parameters were measured using a Hemavet 950 FS blood count analyzer (Drew Scientific Group)."}, "palmitate-loaded cells": {"tested_on": "palmitate-loaded cells", "test": "Fat clearance from palmitate-loaded cells", "format": "cell-based", "conditions": "in vitro"}}, "note": "“Also recorded” adds a separate entry of the source.", "data": [{"smiles": "O=C(/C=C/c1ccc(O)c(O)c1)NCCc1ccc(O)cc1", "note": "[NCT, N-transcaffeoyltyramine]", "values": [{"measurement": "hepatic cytochrome C protein level (HFD-induced decrease)", "setting": "cytochrome C", "result": "reversed"}, {"measurement": "hepatic succinate dehydrogenase protein level (HFD-induced decrease)", "setting": "[1]", "result": "reversed"}, {"measurement": "Parp1 mRNA level", "setting": "Parp1 mRNA", "result": "not modulated"}, {"measurement": "IL-6 mRNA in mouse liver", "setting": "IL-6 mRNA", "result": "significantly reduced"}, {"measurement": "Sirtuin1 mRNA in primary human hepatocytes", "setting": "Sirtuin1 mRNA", "result": "significant effect"}, {"measurement": "nitric oxide (NO) in cultured cells treated with palmitate", "setting": "T6PNE cells", "result": "decreased"}, {"measurement": "other components of the liver profile panel", "setting": "[2]; HFD versus HFD+NCT", "result": "no difference"}, {"measurement": "blood ALP", "setting": "[2]; HFD+NCT vs HFD", "result": "unchanged"}, {"measurement": "blood ALT level", "setting": "[2]; HFD+NCT vs HFD", "result": "reduced; also recorded: significantly decreased"}, {"measurement": "hematological analysis", "setting": "[3]", "result": "no difference"}, {"measurement": "fat clearance from palmitate-loaded cells", "setting": "palmitate-loaded cells", "result": "induced fat clearance"}]}]}
